system: not listed separately; test: DRUGMATRIX: Calcium Channel Type L, Benzothiazepine radioligand binding (ligand: [3H] Diltiazem); assay type: cell membranes, Rattus norvegicus, Wistar, Brain, Membrane; conditions: Not Active = under 50% inhibition at 10 µM

SMILES | IC50 | Ki
C/C=C1\[C@H]2C=C(C)C[C@]1(N)c1ccc(=O)[nH]c1C2 [HUPERZINE A] | Not Active | Not Active
CC1COc2c(N3CCN(C)CC3)c(F)cc3c(=O)c(C(=O)O)cn1c23 (stereo unspecified) [OFLOXACIN] | Not Active | Not Active
CC(=O)[C@@]1(O)CC[C@H]2[C@@H]3C[C@H](C)C4=CC(=O)C=C[C@]4(C)[C@@]3(F)[C@@H](O)C[C@@]21C [FLUOROMETHOLONE] | Not Active | Not Active

molecular target: T1, Adenosine receptor A3 (Homo sapiens, UniProt P0DMS8); test: not given; assay type: cell membranes, CHO-K1, Membrane; conditions: cho-k1;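 further: radioligand binding assay with AB-MECA serving as the labeled ligand; in other assays of this panel Not Active means under 50% inhibition at 10 µM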
T1 sequence (P0DMS8 whole entry): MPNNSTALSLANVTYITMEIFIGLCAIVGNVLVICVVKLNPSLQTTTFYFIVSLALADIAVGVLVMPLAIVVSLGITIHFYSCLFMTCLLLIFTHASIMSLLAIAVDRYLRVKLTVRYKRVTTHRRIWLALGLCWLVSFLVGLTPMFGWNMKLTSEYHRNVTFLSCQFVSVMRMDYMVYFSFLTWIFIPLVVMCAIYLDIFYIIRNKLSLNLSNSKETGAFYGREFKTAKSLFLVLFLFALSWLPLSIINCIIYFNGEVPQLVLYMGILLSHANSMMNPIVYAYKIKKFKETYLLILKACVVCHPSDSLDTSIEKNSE

SMILES | IC50
C/C=C1\[C@H]2C=C(C)C[C@]1(N)c1ccc(=O)[nH]c1C2 [HUPERZINE A] | Not Active
CC1COc2c(N3CCN(C)CC3)c(F)cc3c(=O)c(C(=O)O)cn1c23 (stereo unspecified) [OFLOXACIN] | Not Active
CC(=O)[C@@]1(O)CC[C@H]2[C@@H]3C[C@H](C)C4=CC(=O)C=C[C@]4(C)[C@@]3(F)[C@@H](O)C[C@@]21C [FLUOROMETHOLONE] | Not Active

molecular target: Cytochrome P450 2D6 (Homo sapiens, UniProt P10635); test: not given; conditions: bti-tn-5b1-4; further: in other assays of this panel Not Active means under 50% inhibition at 10 µM
Sequence (P10635 whole entry): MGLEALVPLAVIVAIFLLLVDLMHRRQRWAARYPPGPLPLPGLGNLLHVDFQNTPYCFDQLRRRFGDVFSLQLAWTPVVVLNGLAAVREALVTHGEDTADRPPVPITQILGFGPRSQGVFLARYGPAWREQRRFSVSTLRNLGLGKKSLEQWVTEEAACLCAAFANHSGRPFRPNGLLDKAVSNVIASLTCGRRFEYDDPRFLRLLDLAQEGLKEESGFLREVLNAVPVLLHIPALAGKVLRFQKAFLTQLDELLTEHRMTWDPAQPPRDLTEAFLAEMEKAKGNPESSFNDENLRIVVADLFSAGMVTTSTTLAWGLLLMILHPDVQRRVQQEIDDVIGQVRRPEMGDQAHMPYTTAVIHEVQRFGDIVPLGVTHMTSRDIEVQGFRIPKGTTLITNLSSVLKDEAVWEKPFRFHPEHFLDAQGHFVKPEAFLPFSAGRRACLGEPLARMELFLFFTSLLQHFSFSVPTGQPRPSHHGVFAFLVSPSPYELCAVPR

SMILES | IC50 | Ki
C/C=C1\[C@H]2C=C(C)C[C@]1(N)c1ccc(=O)[nH]c1C2 [HUPERZINE A] | Not Active | Not Active
CC1COc2c(N3CCN(C)CC3)c(F)cc3c(=O)c(C(=O)O)cn1c23 (stereo unspecified) [OFLOXACIN] | Not Active | Not Active
CC(=O)[C@@]1(O)CC[C@H]2[C@@H]3C[C@H](C)C4=CC(=O)C=C[C@]4(C)[C@@]3(F)[C@@H](O)C[C@@]21C [FLUOROMETHOLONE] | Not Active | Not Active

molecular target: Histamine H2 receptor (Homo sapiens, UniProt P25021); test: not given; assay type: cell membranes, CHO-K1, Membrane; conditions: cho-k1; further: in other assays of this panel Not Active means under 50% inhibition at 10 µM
Sequence (P25021 whole entry): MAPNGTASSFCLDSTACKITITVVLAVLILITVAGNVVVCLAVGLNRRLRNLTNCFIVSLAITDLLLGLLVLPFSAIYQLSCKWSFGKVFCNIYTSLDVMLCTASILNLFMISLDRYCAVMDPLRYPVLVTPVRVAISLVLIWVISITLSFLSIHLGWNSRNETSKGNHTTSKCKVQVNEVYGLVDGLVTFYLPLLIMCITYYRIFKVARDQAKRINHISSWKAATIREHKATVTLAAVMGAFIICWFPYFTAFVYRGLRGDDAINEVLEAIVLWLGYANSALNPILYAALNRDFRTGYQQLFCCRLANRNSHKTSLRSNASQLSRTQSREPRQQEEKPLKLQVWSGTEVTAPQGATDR

SMILES | IC50
C/C=C1\[C@H]2C=C(C)C[C@]1(N)c1ccc(=O)[nH]c1C2 [HUPERZINE A] | Not Active
CC1COc2c(N3CCN(C)CC3)c(F)cc3c(=O)c(C(=O)O)cn1c23 (stereo unspecified) [OFLOXACIN] | Not Active
CC(=O)[C@@]1(O)CC[C@H]2[C@@H]3C[C@H](C)C4=CC(=O)C=C[C@]4(C)[C@@]3(F)[C@@H](O)C[C@@]21C [FLUOROMETHOLONE] | Not Active

molecular target: D(1A) dopamine receptor (Homo sapiens, UniProt P21728); test: DRUGMATRIX: Dopamine D1 radioligand binding (ligand: [3H] SCH-23390); assay type: cell membranes, CHO, Membrane; conditions: cho; Not Active = under 50% inhibition at 10 µM
Sequence (P21728 whole entry): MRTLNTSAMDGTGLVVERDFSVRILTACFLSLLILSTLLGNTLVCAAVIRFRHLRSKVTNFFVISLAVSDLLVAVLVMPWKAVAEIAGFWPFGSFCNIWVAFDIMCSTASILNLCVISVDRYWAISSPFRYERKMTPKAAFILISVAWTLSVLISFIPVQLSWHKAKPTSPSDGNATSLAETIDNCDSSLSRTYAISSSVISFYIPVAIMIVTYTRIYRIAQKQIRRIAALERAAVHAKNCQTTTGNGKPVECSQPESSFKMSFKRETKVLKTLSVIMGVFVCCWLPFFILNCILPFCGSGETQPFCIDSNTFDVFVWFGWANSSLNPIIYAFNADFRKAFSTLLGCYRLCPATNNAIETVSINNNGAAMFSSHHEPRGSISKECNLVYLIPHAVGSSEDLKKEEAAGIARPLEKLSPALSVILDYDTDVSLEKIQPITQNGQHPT

SMILES | IC50
C/C=C1\[C@H]2C=C(C)C[C@]1(N)c1ccc(=O)[nH]c1C2 [HUPERZINE A] | Not Active
CC1COc2c(N3CCN(C)CC3)c(F)cc3c(=O)c(C(=O)O)cn1c23 (stereo unspecified) [OFLOXACIN] | Not Active
CC(=O)[C@@]1(O)CC[C@H]2[C@@H]3C[C@H](C)C4=CC(=O)C=C[C@]4(C)[C@@]3(F)[C@@H](O)C[C@@]21C [FLUOROMETHOLONE] | Not Active

molecular target: T2, C-X-C chemokine receptor type 2 (Homo sapiens, UniProt P25025); test: not given; assay type: cell membranes, Membrane; conditions: cho-k1; further: in other assays of this panel Not Active means under 50% inhibition at 10 µM
T2 sequence (P25025 whole entry): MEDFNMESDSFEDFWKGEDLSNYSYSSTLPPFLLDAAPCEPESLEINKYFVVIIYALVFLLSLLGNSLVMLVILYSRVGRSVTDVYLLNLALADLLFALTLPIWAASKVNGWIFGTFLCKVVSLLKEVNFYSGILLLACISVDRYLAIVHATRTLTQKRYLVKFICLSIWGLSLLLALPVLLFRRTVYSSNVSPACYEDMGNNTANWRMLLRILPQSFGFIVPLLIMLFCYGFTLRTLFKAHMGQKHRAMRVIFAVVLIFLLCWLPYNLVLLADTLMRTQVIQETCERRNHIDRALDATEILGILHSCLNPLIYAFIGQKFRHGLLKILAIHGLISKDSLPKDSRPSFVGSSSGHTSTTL

SMILES | IC50
C/C=C1\[C@H]2C=C(C)C[C@]1(N)c1ccc(=O)[nH]c1C2 [HUPERZINE A] | Not Active
CC1COc2c(N3CCN(C)CC3)c(F)cc3c(=O)c(C(=O)O)cn1c23 (stereo unspecified) [OFLOXACIN] | Not Active
CC(=O)[C@@]1(O)CC[C@H]2[C@@H]3C[C@H](C)C4=CC(=O)C=C[C@]4(C)[C@@]3(F)[C@@H](O)C[C@@]21C [FLUOROMETHOLONE] | Not Active

molecular target: T3, Polyunsaturated fatty acid lipoxygenase ALOX15 (Oryctolagus cuniculus, UniProt P12530); test: biochemical; assay type: tissue-based, Reticulocytes; conditions: reticulocytes
T3 sequence (P12530 whole entry): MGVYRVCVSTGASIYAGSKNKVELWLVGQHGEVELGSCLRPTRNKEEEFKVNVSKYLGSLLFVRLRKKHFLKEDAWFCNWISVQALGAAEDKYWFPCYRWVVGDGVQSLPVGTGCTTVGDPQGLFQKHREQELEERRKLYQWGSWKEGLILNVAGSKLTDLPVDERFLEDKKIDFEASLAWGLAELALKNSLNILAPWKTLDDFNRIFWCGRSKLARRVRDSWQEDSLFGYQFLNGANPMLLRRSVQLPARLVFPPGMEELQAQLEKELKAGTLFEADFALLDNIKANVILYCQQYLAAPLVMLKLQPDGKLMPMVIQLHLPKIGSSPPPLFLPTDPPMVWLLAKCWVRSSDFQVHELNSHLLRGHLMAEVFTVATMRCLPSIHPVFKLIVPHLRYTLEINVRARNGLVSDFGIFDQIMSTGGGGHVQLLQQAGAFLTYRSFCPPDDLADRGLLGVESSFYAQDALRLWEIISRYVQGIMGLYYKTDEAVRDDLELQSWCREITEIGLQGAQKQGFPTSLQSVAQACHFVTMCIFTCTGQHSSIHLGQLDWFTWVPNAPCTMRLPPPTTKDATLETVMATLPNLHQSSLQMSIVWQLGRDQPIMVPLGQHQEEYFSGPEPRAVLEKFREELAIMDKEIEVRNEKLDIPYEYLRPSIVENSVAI

SMILES | IC50
C/C=C1\[C@H]2C=C(C)C[C@]1(N)c1ccc(=O)[nH]c1C2 [HUPERZINE A] | Not Active
CC1COc2c(N3CCN(C)CC3)c(F)cc3c(=O)c(C(=O)O)cn1c23 (stereo unspecified) [OFLOXACIN] | Not Active
CC(=O)[C@@]1(O)CC[C@H]2[C@@H]3C[C@H](C)C4=CC(=O)C=C[C@]4(C)[C@@]3(F)[C@@H](O)C[C@@]21C [FLUOROMETHOLONE] | Not Active

molecular target: T4, Alpha-1B adrenergic receptor (Rattus norvegicus, UniProt P15823); test: DRUGMATRIX: Alpha-1B adrenergic receptor radioligand binding (ligand: prazosin); assay type: cell membranes, Wistar, Liver, Membrane; conditions: Not Active = under 50% inhibition at 10 µM
T4 sequence (P15823 whole entry): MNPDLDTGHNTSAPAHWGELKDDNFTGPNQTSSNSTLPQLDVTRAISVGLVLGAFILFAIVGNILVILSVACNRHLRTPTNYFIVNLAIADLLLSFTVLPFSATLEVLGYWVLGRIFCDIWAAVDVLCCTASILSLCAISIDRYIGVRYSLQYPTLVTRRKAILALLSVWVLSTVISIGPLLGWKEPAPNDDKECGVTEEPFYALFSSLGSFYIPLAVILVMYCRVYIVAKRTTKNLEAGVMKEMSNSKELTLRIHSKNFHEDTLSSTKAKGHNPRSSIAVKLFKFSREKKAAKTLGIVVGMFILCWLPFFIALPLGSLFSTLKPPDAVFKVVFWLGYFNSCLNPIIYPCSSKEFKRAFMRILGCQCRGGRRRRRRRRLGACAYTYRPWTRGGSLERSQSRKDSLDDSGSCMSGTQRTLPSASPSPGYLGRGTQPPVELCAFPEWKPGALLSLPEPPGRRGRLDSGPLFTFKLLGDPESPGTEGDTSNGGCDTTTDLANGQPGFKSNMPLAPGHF

SMILES | IC50
C/C=C1\[C@H]2C=C(C)C[C@]1(N)c1ccc(=O)[nH]c1C2 [HUPERZINE A] | Not Active
CC1COc2c(N3CCN(C)CC3)c(F)cc3c(=O)c(C(=O)O)cn1c23 (stereo unspecified) [OFLOXACIN] | Not Active
CC(=O)[C@@]1(O)CC[C@H]2[C@@H]3C[C@H](C)C4=CC(=O)C=C[C@]4(C)[C@@]3(F)[C@@H](O)C[C@@]21C [FLUOROMETHOLONE] | Not Active

molecular target: Cytochrome P450 2E1 (Homo sapiens, UniProt P05181); test: not given; conditions: bti-tn-5b1-4; further: in other assays of this panel Not Active means under 50% inhibition at 10 µM
Sequence (P05181 whole entry): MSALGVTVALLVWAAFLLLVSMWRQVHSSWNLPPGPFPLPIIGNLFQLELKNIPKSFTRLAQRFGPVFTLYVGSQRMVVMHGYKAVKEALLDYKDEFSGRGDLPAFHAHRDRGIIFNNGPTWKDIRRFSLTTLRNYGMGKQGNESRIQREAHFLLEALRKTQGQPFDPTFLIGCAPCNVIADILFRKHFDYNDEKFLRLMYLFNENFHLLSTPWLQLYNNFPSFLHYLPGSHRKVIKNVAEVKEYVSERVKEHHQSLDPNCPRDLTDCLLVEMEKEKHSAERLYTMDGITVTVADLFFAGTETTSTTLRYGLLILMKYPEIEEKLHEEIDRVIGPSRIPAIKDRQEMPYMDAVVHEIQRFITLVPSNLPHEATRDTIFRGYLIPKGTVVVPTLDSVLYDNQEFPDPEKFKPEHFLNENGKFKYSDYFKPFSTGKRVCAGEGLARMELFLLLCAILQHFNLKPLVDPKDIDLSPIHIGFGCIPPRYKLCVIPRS

SMILES | IC50 | Ki
C/C=C1\[C@H]2C=C(C)C[C@]1(N)c1ccc(=O)[nH]c1C2 [HUPERZINE A] | Not Active | Not Active
CC1COc2c(N3CCN(C)CC3)c(F)cc3c(=O)c(C(=O)O)cn1c23 (stereo unspecified) [OFLOXACIN] | Not Active | Not Active
CC(=O)[C@@]1(O)CC[C@H]2[C@@H]3C[C@H](C)C4=CC(=O)C=C[C@]4(C)[C@@]3(F)[C@@H](O)C[C@@]21C [FLUOROMETHOLONE] | Not Active | Not Active

system: not listed separately; test: DRUGMATRIX: GABAA, Chloride Channel, TBOB radioligand binding (ligand: [3H] TBOB); assay type: cell membranes, Rattus norvegicus, Wistar, Cerebral cortex, Membrane; conditions: Not Active = under 50% inhibition at 10 µM

SMILES | IC50 | Ki
C/C=C1\[C@H]2C=C(C)C[C@]1(N)c1ccc(=O)[nH]c1C2 [HUPERZINE A] | Not Active | Not Active
CC1COc2c(N3CCN(C)CC3)c(F)cc3c(=O)c(C(=O)O)cn1c23 (stereo unspecified) [OFLOXACIN] | Not Active | Not Active
CC(=O)[C@@]1(O)CC[C@H]2[C@@H]3C[C@H](C)C4=CC(=O)C=C[C@]4(C)[C@@]3(F)[C@@H](O)C[C@@]21C [FLUOROMETHOLONE] | Not Active | Not Active

molecular target: Beta-3 adrenergic receptor (Homo sapiens, UniProt P13945); test: DRUGMATRIX: Adrenergic beta3 radioligand binding (ligand: [125I] Cyanopindolol); assay type: cell membranes, HEK293, Membrane; conditions: hek293; Not Active = under 50% inhibition at 10 µM
Sequence (P13945 whole entry): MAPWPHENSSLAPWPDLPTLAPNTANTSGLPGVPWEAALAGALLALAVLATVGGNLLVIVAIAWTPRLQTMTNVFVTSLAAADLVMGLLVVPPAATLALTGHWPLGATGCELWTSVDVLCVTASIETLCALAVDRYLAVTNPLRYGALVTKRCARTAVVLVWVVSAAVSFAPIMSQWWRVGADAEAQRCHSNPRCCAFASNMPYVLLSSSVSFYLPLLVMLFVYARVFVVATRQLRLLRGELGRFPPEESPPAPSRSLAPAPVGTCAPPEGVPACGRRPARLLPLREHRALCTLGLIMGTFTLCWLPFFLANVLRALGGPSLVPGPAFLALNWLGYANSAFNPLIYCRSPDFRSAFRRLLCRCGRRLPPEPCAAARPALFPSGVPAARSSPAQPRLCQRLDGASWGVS

SMILES | IC50
C/C=C1\[C@H]2C=C(C)C[C@]1(N)c1ccc(=O)[nH]c1C2 [HUPERZINE A] | Not Active
CC1COc2c(N3CCN(C)CC3)c(F)cc3c(=O)c(C(=O)O)cn1c23 (stereo unspecified) [OFLOXACIN] | Not Active
CC(=O)[C@@]1(O)CC[C@H]2[C@@H]3C[C@H](C)C4=CC(=O)C=C[C@]4(C)[C@@]3(F)[C@@H](O)C[C@@]21C [FLUOROMETHOLONE] | Not Active

molecular target: 5-hydroxytryptamine receptor 2B (Homo sapiens, UniProt P41595); test: not given; assay type: cell membranes, CHO-K1, Membrane; conditions: cho-k1; further: in other assays of this panel Not Active means under 50% inhibition at 10 µM
Sequence (P41595 whole entry): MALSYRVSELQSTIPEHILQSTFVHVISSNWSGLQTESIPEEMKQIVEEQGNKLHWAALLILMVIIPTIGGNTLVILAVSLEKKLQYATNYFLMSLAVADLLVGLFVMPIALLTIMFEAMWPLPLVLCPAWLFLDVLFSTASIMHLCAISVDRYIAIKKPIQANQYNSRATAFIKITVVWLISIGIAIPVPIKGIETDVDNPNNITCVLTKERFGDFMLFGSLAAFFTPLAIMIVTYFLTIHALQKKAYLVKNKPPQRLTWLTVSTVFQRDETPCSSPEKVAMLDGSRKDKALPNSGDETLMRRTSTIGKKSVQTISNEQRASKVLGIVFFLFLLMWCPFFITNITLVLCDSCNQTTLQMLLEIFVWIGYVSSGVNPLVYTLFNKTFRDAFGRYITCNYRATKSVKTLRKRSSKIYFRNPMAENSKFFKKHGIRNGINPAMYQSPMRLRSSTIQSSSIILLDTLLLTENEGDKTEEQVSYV

SMILES | IC50
C/C=C1\[C@H]2C=C(C)C[C@]1(N)c1ccc(=O)[nH]c1C2 [HUPERZINE A] | Not Active
CC1COc2c(N3CCN(C)CC3)c(F)cc3c(=O)c(C(=O)O)cn1c23 (stereo unspecified) [OFLOXACIN] | Not Active
CC(=O)[C@@]1(O)CC[C@H]2[C@@H]3C[C@H](C)C4=CC(=O)C=C[C@]4(C)[C@@]3(F)[C@@H](O)C[C@@]21C [FLUOROMETHOLONE] | Not Active

molecular target: 5-hydroxytryptamine receptor 6 (Homo sapiens, UniProt P50406); test: not given; assay type: cell membranes, HeLa, Membrane; conditions: hela; further: in other assays of this panel Not Active means under 50% inhibition at 10 µM
Sequence (P50406 whole entry): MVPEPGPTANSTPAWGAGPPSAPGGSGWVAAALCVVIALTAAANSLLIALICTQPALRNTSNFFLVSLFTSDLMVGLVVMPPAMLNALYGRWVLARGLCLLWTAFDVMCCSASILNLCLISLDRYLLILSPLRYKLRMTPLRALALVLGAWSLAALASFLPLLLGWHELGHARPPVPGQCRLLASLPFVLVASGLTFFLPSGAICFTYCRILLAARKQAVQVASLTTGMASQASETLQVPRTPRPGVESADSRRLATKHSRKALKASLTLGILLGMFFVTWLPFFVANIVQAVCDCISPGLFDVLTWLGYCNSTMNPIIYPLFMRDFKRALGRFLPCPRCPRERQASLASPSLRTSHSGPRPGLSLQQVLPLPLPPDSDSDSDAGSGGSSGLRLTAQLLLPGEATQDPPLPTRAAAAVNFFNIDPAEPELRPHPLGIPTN

SMILES | IC50
C/C=C1\[C@H]2C=C(C)C[C@]1(N)c1ccc(=O)[nH]c1C2 [HUPERZINE A] | Not Active
CC1COc2c(N3CCN(C)CC3)c(F)cc3c(=O)c(C(=O)O)cn1c23 (stereo unspecified) [OFLOXACIN] | Not Active
CC(=O)[C@@]1(O)CC[C@H]2[C@@H]3C[C@H](C)C4=CC(=O)C=C[C@]4(C)[C@@]3(F)[C@@H](O)C[C@@]21C [FLUOROMETHOLONE] | Not Active
